Experiment [1] deals with SARS-CoV-2. Kind of experiment: Antiviral activity against SARS-CoV-2 Gamma (P.1) variant infected in human A549 cells harbouring ACE2 pretreated with compound for 1 hr followed by viral infection for 1 hrs and measured after 48 hrs by RT-qPCR analysis. Format: functional, organism-based. To be noted: Severe acute respiratory syndrome coronavirus 2, time 50.0 hrs. (In qPCR the cycle at which signal appears reflects the starting amount.)

Experiment [2] has as its system SARS-CoV-2. Kind of experiment: Antiviral activity against SARS-CoV-2 Delta (B.1.617.2) variant infected in human A549 cells harbouring ACE2 pretreated with compound for 1 hr followed by viral infection for 1 hrs and measured after 48 hrs by RT-qPCR analysis. Format: functional, organism-based. Particulars: Severe acute respiratory syndrome coronavirus 2, time 50.0 hrs.

SMILES strings stand for the structures. The source made the active and inactive calls. The calls are words filed in the database; no cut-off is given here.

`Cc1ccc(NC2CNC2)cc1C(=O)N[C@H](C)c1cccc(-c2ccc(CNC3CCCC3)s2)c1`: the outcome in the experiment on SARS-CoV-2 [1] and in the experiment with SARS-CoV-2 [2] was Active.

The values are drawn from ChEMBL document CHEMBL5576130, “Non-Covalent Inhibitors of SARS-CoV-2 Papain-Like Protease (PLpro): In Vitro and In Vivo Antiviral Activity” (J Med Chem, 2024).
